Measured values: PubChem BioAssay (NCI)
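Growth conditions: 96-well plates. Treatment: test compound, 48 hours, 5 concentrations. Analysis: linear interpolation between bracketing concentrations; unreached endpoints set to highest concentration. At the GI50, growth is halved. TGI marks complete inhibition of growth.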

Tests used:
Assay in all cases: DTP human tumour cell line panel, 48 h
UACC-62 melanoma = tested on: UACC-62 melanoma
MALME-3M melanoma = tested on: MALME-3M melanoma
SW-620 colon = tested on: SW-620 colon
LOX IMVI melanoma = tested on: LOX IMVI melanoma
M14 melanoma = tested on: M14 melanoma
CCRF-CEM leukemia = tested on: CCRF-CEM leukemia
PC-3 prostate = tested on: PC-3 prostate
RPMI-8226 leukemia = tested on: RPMI-8226 leukemia
UACC-257 melanoma = tested on: UACC-257 melanoma
DU-145 prostate = tested on: DU-145 prostate
MDA-MB-231 breast = tested on: MDA-MB-231 breast
UO-31 renal = tested on: UO-31 renal
MDA-MB-435 = tested on: MDA-MB-435
OVCAR-5 ovarian = tested on: OVCAR-5 ovarian
BT-549 breast = tested on: BT-549 breast
RXF 393 renal = tested on: RXF 393 renal
SK-MEL-28 melanoma = tested on: SK-MEL-28 melanoma
HL-60(TB) leukemia = tested on: HL-60(TB) leukemia
SNB-19 CNS = tested on: SNB-19 CNS
CAKI-1 renal = tested on: CAKI-1 renal
786-0 renal = tested on: 786-0 renal
COLO 205 colon = tested on: COLO 205 colon
HT29 colon = tested on: HT29 colon
NCI-H522 lung = tested on: NCI-H522 lung
SN12C renal = tested on: SN12C renal
SNB-75 CNS = tested on: SNB-75 CNS
SK-MEL-5 melanoma = tested on: SK-MEL-5 melanoma
HCT-116 colon = tested on: HCT-116 colon
NCI/ADR-RES ovarian = tested on: NCI/ADR-RES ovarian
HS 578T breast = tested on: HS 578T breast
HCT-15 colon = tested on: HCT-15 colon
K-562 leukemia = tested on: K-562 leukemia
MCF7 breast = tested on: MCF7 breast
OVCAR-4 ovarian = tested on: OVCAR-4 ovarian
SR leukemia = tested on: SR leukemia
SF-268 CNS = tested on: SF-268 CNS
NCI-H460 lung = tested on: NCI-H460 lung
OVCAR-8 ovarian = tested on: OVCAR-8 ovarian
ACHN renal = tested on: ACHN renal
U251 CNS = tested on: U251 CNS
A549 NSCLC = tested on: A549 NSCLC
SF-539 CNS = tested on: SF-539 CNS
HOP-62 NSCLC = tested on: HOP-62 NSCLC
MOLT-4 leukemia = tested on: MOLT-4 leukemia
SK-OV-3 ovarian = tested on: SK-OV-3 ovarian

Compound: O=C1c2c(c3c4cc(Br)ccc4[nH]c3c3ccc4ccccc4c23)C(=O)N1CCN1CCCCC1
- GI50 (UACC-62 melanoma): 1970 nM
- TGI (UACC-62 melanoma): 7300 nM
- GI50 (MALME-3M melanoma): 1620 nM
- TGI (MALME-3M melanoma): 3110 nM
- GI50 (SW-620 colon): 1040 nM
- TGI (SW-620 colon): 2390 nM
- GI50 (LOX IMVI melanoma): 1180 nM
- TGI (LOX IMVI melanoma): 2660 nM
- GI50 (M14 melanoma): 1360 nM
- TGI (M14 melanoma): 2810 nM
- GI50 (CCRF-CEM leukemia): 331 nM
- TGI (CCRF-CEM leukemia): 2180 nM
- GI50 (PC-3 prostate): 1470 nM
- TGI (PC-3 prostate): 2930 nM
- GI50 (RPMI-8226 leukemia): 1630 nM
- TGI (RPMI-8226 leukemia): 3940 nM
- GI50 (UACC-257 melanoma): 1690 nM
- TGI (UACC-257 melanoma): 3200 nM
- GI50 (DU-145 prostate): 1100 nM
- TGI (DU-145 prostate): 2480 nM
- GI50 (MDA-MB-231 breast): 1570 nM
- TGI (MDA-MB-231 breast): 3220 nM
- GI50 (UO-31 renal): 1500 nM
- TGI (UO-31 renal): 3000 nM
- GI50 (MDA-MB-435): 1610 nM
- TGI (MDA-MB-435): 3110 nM
- GI50 (OVCAR-5 ovarian): 1850 nM
- TGI (OVCAR-5 ovarian): 3390 nM
- GI50 (BT-549 breast): 9500 nM
- TGI (BT-549 breast): > 100000 nM
- GI50 (RXF 393 renal): 1480 nM
- TGI (RXF 393 renal): 2930 nM
- GI50 (SK-MEL-28 melanoma): 1770 nM
- TGI (SK-MEL-28 melanoma): 3290 nM
- GI50 (HL-60(TB) leukemia): 1440 nM
- TGI (HL-60(TB) leukemia): 6100 nM
- GI50 (SNB-19 CNS): 1720 nM
- TGI (SNB-19 CNS): > 100000 nM
- GI50 (CAKI-1 renal): 1290 nM
- TGI (CAKI-1 renal): 2790 nM
- GI50 (786-0 renal): 1680 nM
- TGI (786-0 renal): 3100 nM
- GI50 (COLO 205 colon): 1430 nM
- TGI (COLO 205 colon): 3150 nM
- GI50 (HT29 colon): 1230 nM
- TGI (HT29 colon): 2560 nM
- GI50 (NCI-H522 lung): 1230 nM
- TGI (NCI-H522 lung): 2690 nM
- GI50 (SN12C renal): 1440 nM
- TGI (SN12C renal): 3160 nM
- GI50 (SNB-75 CNS): 1520 nM
- TGI (SNB-75 CNS): 3440 nM
- GI50 (SK-MEL-5 melanoma): 1770 nM
- TGI (SK-MEL-5 melanoma): 3270 nM
- GI50 (HCT-116 colon): 1200 nM
- TGI (HCT-116 colon): 2520 nM
- GI50 (NCI/ADR-RES ovarian): 1280 nM
- TGI (NCI/ADR-RES ovarian): 3340 nM
- GI50 (HS 578T breast): 2040 nM
- TGI (HS 578T breast): 4890 nM
- GI50 (HCT-15 colon): 1540 nM
- TGI (HCT-15 colon): 3520 nM
- GI50 (K-562 leukemia): 912 nM
- TGI (K-562 leukemia): 3300 nM
- GI50 (MCF7 breast): 178 nM
- TGI (MCF7 breast): 1770 nM
- GI50 (OVCAR-4 ovarian): 1800 nM
- TGI (OVCAR-4 ovarian): 3680 nM
- GI50 (SR leukemia): 100 nM
- TGI (SR leukemia): 1840 nM
- GI50 (SF-268 CNS): 1440 nM
- TGI (SF-268 CNS): 4080 nM
- GI50 (NCI-H460 lung): 390 nM
- TGI (NCI-H460 lung): 1520 nM
- GI50 (OVCAR-8 ovarian): 1210 nM
- TGI (OVCAR-8 ovarian): 2590 nM
- GI50 (ACHN renal): 783 nM
- TGI (ACHN renal): 2030 nM
- GI50 (U251 CNS): 884 nM
- TGI (U251 CNS): 2130 nM
- GI50 (A549 NSCLC): 1380 nM
- TGI (A549 NSCLC): 2740 nM
- GI50 (SF-539 CNS): 1570 nM
- TGI (SF-539 CNS): 3080 nM
- GI50 (HOP-62 NSCLC): 689 nM
- TGI (HOP-62 NSCLC): 2030 nM
- GI50 (MOLT-4 leukemia): 314 nM
- TGI (MOLT-4 leukemia): 2530 nM
- GI50 (SK-OV-3 ovarian): 2660 nM
- TGI (SK-OV-3 ovarian): > 100000 nM
